pIC50: −log10 of the molar value.
Legend:
[1] = AUC (0 to infinity) in Sprague-Dawley rat plasma at 5 mg/kg, ip measured after 10 to 180 mins by HPLC-MS analysis; format: ADME, organism-based; design: route intraperitoneal, time lower 10 min, dose 5 mg/kg, time upper 180 min
[2] = Half life in Sprague-Dawley rat plasma at 5 mg/kg, ip measured after 10 to 180 mins by HPLC-MS analysis; format: ADME, organism-based; settings: time 10-180 min
[3] = Volume of distribution in Sprague-Dawley rat plasma at 5 mg/kg, ip measured after 10 to 180 mins by HPLC-MS analysis; format: ADME, organism-based; settings: in vivo, time 10-180 min
[4] = Cmax in Sprague-Dawley rat brain at 5 mg/kg, ip measured up to 30 mins by HPLC-MS analysis; format: ADME, organism-based; design: route intraperitoneal, dose 5 mg/kg, time <=30
[5] = Ratio of drug level in Sprague-Dawley rat brain to plasma at 5 mg/kg, ip measured after 10 to 180 mins by HPLC-MS analysis; format: ADME, organism-based; settings: brain and plasma, time 10-180 min, read-out: BPR
[6] = target: Amyloid-beta precursor protein (Homo sapiens, UniProt P05067); assay: Inhibition of self-induced amyloid beta (1 to 42) (unknown origin) aggregation incubated for 24 hrs by ThT fluorescence assay
Sequence of Amyloid-beta precursor protein (P05067 whole entry): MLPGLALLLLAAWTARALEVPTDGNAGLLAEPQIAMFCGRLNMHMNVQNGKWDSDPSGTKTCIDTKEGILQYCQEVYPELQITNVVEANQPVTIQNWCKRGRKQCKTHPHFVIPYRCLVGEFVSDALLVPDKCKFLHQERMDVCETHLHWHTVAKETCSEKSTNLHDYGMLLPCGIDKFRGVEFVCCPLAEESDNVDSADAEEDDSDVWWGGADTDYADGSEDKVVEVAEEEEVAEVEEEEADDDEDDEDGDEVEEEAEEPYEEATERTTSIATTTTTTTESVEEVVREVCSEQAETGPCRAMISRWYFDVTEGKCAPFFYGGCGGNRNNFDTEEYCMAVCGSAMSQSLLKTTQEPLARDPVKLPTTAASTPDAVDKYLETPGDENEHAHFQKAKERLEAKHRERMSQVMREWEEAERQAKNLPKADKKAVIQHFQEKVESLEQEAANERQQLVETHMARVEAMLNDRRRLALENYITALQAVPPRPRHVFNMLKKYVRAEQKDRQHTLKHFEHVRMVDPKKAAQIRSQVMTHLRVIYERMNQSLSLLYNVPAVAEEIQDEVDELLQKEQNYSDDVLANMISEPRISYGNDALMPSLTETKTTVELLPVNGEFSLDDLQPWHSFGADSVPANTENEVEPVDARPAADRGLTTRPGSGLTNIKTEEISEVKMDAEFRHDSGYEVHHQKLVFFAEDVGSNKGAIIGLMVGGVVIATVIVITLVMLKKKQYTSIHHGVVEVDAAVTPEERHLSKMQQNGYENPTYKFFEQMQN

- AUC(0-inf) [1]: 636 ng·h/mL
- half-life [2]: 1.6 h
- Vd [3]: 18.7 L/kg
- Cmax [4]: 207 ng/mL
- Kp [5]: 0.69
- pIC50 [6]: 5.55
Structure (SMILES): C#CCN(C)CCCn1ccc(=O)c(O)c1C
